The results in this text go back to PubChem BioAssay (NCI).

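Growth conditions: 96-well plates. Treatment: test compound, 48 hours, 5 concentrations. Analysis: linear interpolation between bracketing concentrations; unreached endpoints set to highest concentration. GI50 = concentration required for 50% inhibition of growth. TGI marks complete inhibition of growth.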

Test systems include OVCAR-5 ovarian; A498 renal; MOLT-4 leukemia; NCI-H460 lung; HL-60(TB) leukemia; SF-268 CNS; SR leukemia; A549 NSCLC; HOP-62 NSCLC; PC-3 prostate.
Holding throughout (test): NCI anticancer screen, dose series, 48 h

With `Cn1cc(C2=C(c3cn(CCCCCO)c4ccccc34)C(=O)NC2=O)c2ccccc21`, the GI50 in the test with OVCAR-5 ovarian is 11.8 µM; with A498 renal, 4.18 µM; with MOLT-4 leukemia it was 4.71 µM; in the test with NCI-H460 lung it was 6.01 µM; in the test with HL-60(TB) leukemia, 4.08 µM; in the test on SF-268 CNS, 6.34 µM. The GI50 with SR leukemia was 1.57 µM; in the test with A549 NSCLC, 6.19 µM; with HOP-62 NSCLC, 5.92 µM; in the test with PC-3 prostate it was 6.88 µM. In addition, the TGI with OVCAR-5 ovarian is greater than 25 µM; in the test with A498 renal, 14.3 µM; in the test with MOLT-4 leukemia, 16.6 µM; in the test with NCI-H460 lung, 14.8 µM; in the test with HL-60(TB) leukemia it was 11.5 µM; with SF-268 CNS it was 19.1 µM. Further, the TGI in the test on SR leukemia was 11 µM; with A549 NSCLC, 24 µM; with HOP-62 NSCLC, 15.6 µM; in the test with PC-3 prostate it was greater than 24.1 µM.
As to `CN(C)C=Nc1c(I)cc(I)c(CCC(=O)O)c1I`, the GI50 was greater than 100 µM in the test on OVCAR-5 ovarian; 81.6 µM in the test on A498 renal; greater than 100 µM in the test with MOLT-4 leukemia; greater than 100 µM in the test on NCI-H460 lung; 82.9 µM in the test with HL-60(TB) leukemia; greater than 100 µM with SF-268 CNS. Moreover, the GI50 in the test with SR leukemia is greater than 100 µM; in the test with A549 NSCLC it was greater than 100 µM; with HOP-62 NSCLC, greater than 100 µM; with PC-3 prostate, 91.5 µM. Also, the TGI with OVCAR-5 ovarian, in the test on A498 renal, in the test with MOLT-4 leukemia, with NCI-H460 lung, with HL-60(TB) leukemia and with SF-268 CNS was greater than 100 µM in each case. The TGI in the test on SR leukemia, in the test on A549 NSCLC, in the test with HOP-62 NSCLC and in the test on PC-3 prostate was greater than 100 µM throughout.
Regarding `COc1cc2nc3cc([N+](=O)[O-])ccc3c(NCCNCC(C)O)c2cc1OC` (stereo not drawn), the GI50 in the test with OVCAR-5 ovarian was 2.61 µM; in the test on A498 renal, 1.37 µM; with MOLT-4 leukemia, 0.353 µM; in the test on NCI-H460 lung, 0.366 µM; in the test on HL-60(TB) leukemia it was 2.52 µM; in the test on SF-268 CNS, 0.469 µM. For the same compound, the GI50 was 0.286 µM in the test on SR leukemia, 1.43 µM in the test with A549 NSCLC, 0.713 µM in the test on HOP-62 NSCLC and 0.512 µM in the test with PC-3 prostate. In addition, the TGI turned out to be 9.41 µM in the test with OVCAR-5 ovarian; 3.02 µM in the test on A498 renal; 6.21 µM with MOLT-4 leukemia; 1.6 µM in the test on NCI-H460 lung; 6.66 µM with HL-60(TB) leukemia; 2.46 µM in the test on SF-268 CNS. Also, the TGI amounted to 2.16 µM in the test with SR leukemia, 5.13 µM with A549 NSCLC, 2.87 µM in the test with HOP-62 NSCLC and 2.46 µM in the test on PC-3 prostate.
Turning to `CCCN(CCC)c1ccc(C=O)c(C)c1`, the GI50 in the test with OVCAR-5 ovarian was 58.5 µM; in the test with A498 renal it was 1.27 µM; with MOLT-4 leukemia, 39.8 µM; in the test with NCI-H460 lung it was 46.5 µM; in the test with HL-60(TB) leukemia, 30.8 µM; with SF-268 CNS, 68 µM. Besides, the GI50 was 40.3 µM with SR leukemia, 70.7 µM with A549 NSCLC, 98.1 µM in the test with HOP-62 NSCLC and 32.7 µM in the test on PC-3 prostate. The TGI in the test on OVCAR-5 ovarian was greater than 100 µM; in the test on A498 renal, 3.28 µM; in the test on MOLT-4 leukemia, greater than 100 µM; in the test with NCI-H460 lung it was greater than 100 µM; with HL-60(TB) leukemia, greater than 84.4 µM; in the test with SF-268 CNS it was greater than 100 µM. The TGI in the test on SR leukemia, in the test on A549 NSCLC, with HOP-62 NSCLC and in the test with PC-3 prostate was greater than 100 µM each time.
As for `CCNCCNc1cc(-c2ccc(C(F)(F)F)cc2)c(C#N)c2nc3cc(Cl)c(Cl)cc3n12`, the GI50 in the test with OVCAR-5 ovarian was 2.03 µM; in the test with A498 renal, 2 µM; in the test on NCI-H460 lung, 1.66 µM; in the test with HL-60(TB) leukemia, 0.308 µM; in the test on SF-268 CNS, 1.6 µM; with SR leukemia, 0.185 µM. The GI50 with A549 NSCLC is 1.37 µM; with HOP-62 NSCLC it was 1.96 µM; with PC-3 prostate, 1.71 µM. Moreover, the TGI worked out at 3.68 µM in the test with OVCAR-5 ovarian; 3.6 µM in the test on A498 renal; 3.27 µM in the test on NCI-H460 lung; 1.01 µM with HL-60(TB) leukemia; 3.22 µM in the test on SF-268 CNS; 0.439 µM in the test on SR leukemia. For the same compound, the TGI with A549 NSCLC is 2.77 µM; with HOP-62 NSCLC, 3.56 µM; with PC-3 prostate, 3.4 µM.
With `COc1ccc(OC)c(/C=C/c2ccnc3ccccc23)c1`, the TGI in the test on OVCAR-5 ovarian worked out at 16 µM; with A498 renal, 3.8 µM; with MOLT-4 leukemia, 16.2 µM; in the test with NCI-H460 lung it was 12.3 µM; in the test on HL-60(TB) leukemia, 0.977 µM; in the test with SF-268 CNS, 18.2 µM. The TGI in the test with SR leukemia came to 8.07 µM; in the test with A549 NSCLC it was 14.7 µM; with HOP-62 NSCLC, 18 µM; in the test with PC-3 prostate, 6.76 µM.
Turning to `N#Cc1c(N/N=C\c2ccc(Cl)cc2)nc(N)nc1N1CCOCC1`, the GI50 with OVCAR-5 ovarian was greater than 100 µM; in the test on A498 renal, 25.5 µM; with MOLT-4 leukemia, 13.6 µM; with NCI-H460 lung, 87.7 µM; with HL-60(TB) leukemia, 9.84 µM; in the test with SF-268 CNS, greater than 100 µM. Also, the GI50 in the test with SR leukemia is 11.7 µM; with A549 NSCLC it was 29.6 µM; with HOP-62 NSCLC, 86.6 µM; with PC-3 prostate it was 24.6 µM. The TGI was greater than 100 µM in the test with OVCAR-5 ovarian; 69.2 µM in the test with A498 renal; 34.4 µM with MOLT-4 leukemia; greater than 100 µM in the test with NCI-H460 lung; 27.2 µM with HL-60(TB) leukemia; greater than 100 µM in the test with SF-268 CNS. The TGI is 28.9 µM in the test on SR leukemia, greater than 100 µM with A549 NSCLC, greater than 100 µM with HOP-62 NSCLC and greater than 100 µM with PC-3 prostate.
For `COc1cc(CCNC(=O)OC(C)(C)C)c2c(c1OC)SSSSS2`, the GI50 in the test with OVCAR-5 ovarian is 3.14 µM; in the test on A498 renal, 1.6 µM; with MOLT-4 leukemia, 5.46 µM; in the test with NCI-H460 lung, 2.04 µM; in the test on HL-60(TB) leukemia, 2.92 µM; in the test with SF-268 CNS it was 1.87 µM. For the same compound, the GI50 was 4.48 µM in the test on SR leukemia, 3.36 µM in the test on A549 NSCLC, 3.71 µM in the test on HOP-62 NSCLC and 3.72 µM in the test on PC-3 prostate. Further, the TGI in the test on OVCAR-5 ovarian is 9.23 µM; in the test with A498 renal, 3.09 µM; in the test with MOLT-4 leukemia it was greater than 100 µM; with NCI-H460 lung, 4.81 µM; with HL-60(TB) leukemia it was 13.4 µM; in the test with SF-268 CNS, 4.04 µM. Also, the TGI in the test on SR leukemia came out at 32.8 µM; with A549 NSCLC, 10.2 µM; in the test on HOP-62 NSCLC, 15.3 µM; in the test with PC-3 prostate, 13.6 µM.
